Measurements published in patent US12104169B2, “Chemical reprogramming to generate neuronal cells” (The J. David Gladstone Institutes, a testamentary trust …, priority 2015, dated 2024).
Structures can show the parent of a compound that is named as a salt.

Legend:
tdMEFs = assay: Combinatorial chemical screening for neural reprogramming of tdMEFs (Sox2/Nestin co-expression); assay type: cell-based, mouse; conditions: for generation of Sox2/Nestin double-positive cells: added to the six-molecule condition; for Sox2/Nestin double-positive cells: primary screening, single molecule added to basal condition (LDN, A83, CHIR, bFGF), ten days post-treatment
Experimental: (§1) Cells were washed once with 1×PBS and fixed with 4% paraformaldehyde at room temperature for 10 minutes, followed by permeabilization with 0.2% Triton X-100 in 1×PBS for 10 min, and blocking with 7.5% BSA for at least 1 hour. All primary antibodies were diluted in 1×PBS with 7.5% BSA, and the incubation was performed at 4° C. overnight. The cells were washed with 1×PBS five times for 10 min each at room temperature. The secondary antibodies, labeled with Alexa-488, Alexa-555, and Alexa-647, were purchased from Invitrogen, and were diluted into 1×PBS with 7.5% BSA. Incubation with the secondary antibodies was for 1 hour at room temperature, followed by five 10-minute washes with 1×PBS. The nuclei were stained with DAPI. Living cell staining was used for cell-surface marker O4, as described by Najm et al. (Nat. Biotechnol. 31: 426-433 (2013)). Antibodies used in this study are listed below in Table 1.
Briefly, tdMEFs were plated into neural reprogramming basal medium at 15,000 cells per well in 24-well plate, and after an overnight culture, individual small molecules from a focused chemical collection, including epigenetic modifiers, metabolism regulators, and signaling modulators, were added. Ten days post-treatment, cells were fixed, immune-stained, and analyzed for co-expression of Sox2 and Nestin, two typical NSC markers (FIG. 1A-1B).

Hedgehog (Hh) signaling = conditions: read-out: EC50 activation of Hedgehog (Hh) signaling; cited from earlier work
SAPK2/p38 = SAPK2/p38 (Homo sapiens, UniProt Q16539); conditions: CK1 and ALK5 inhibitor versus SAPK2/p38; cited from earlier work
Sequence of SAPK2/p38 (Q16539 whole entry): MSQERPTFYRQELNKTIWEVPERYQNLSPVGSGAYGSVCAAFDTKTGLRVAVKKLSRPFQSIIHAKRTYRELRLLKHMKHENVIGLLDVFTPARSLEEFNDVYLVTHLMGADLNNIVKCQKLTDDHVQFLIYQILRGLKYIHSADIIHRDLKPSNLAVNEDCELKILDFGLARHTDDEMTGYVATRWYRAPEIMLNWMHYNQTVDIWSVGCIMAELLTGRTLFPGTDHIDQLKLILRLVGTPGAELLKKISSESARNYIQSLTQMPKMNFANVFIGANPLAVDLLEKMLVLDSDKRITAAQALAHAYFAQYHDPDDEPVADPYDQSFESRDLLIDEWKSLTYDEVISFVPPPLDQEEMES

tdMEF [1] = assay: M9 chemical conversion of tdMEFs to ciNSLCs (Sox2/Nestin immunostaining); assay type: cell-based, mouse; conditions: FIG. 2G
Experimental: To convert the fibroblasts into ciNSLCs, MEFs were seeded into Matrigel (Corning, 1:40 dilution)-coated 24-well plates at 15,000 per well, or 1-1.5 million in 15-cm dishes in MEF medium (Dulbecco's modified Eagle's medium supplemented with 10% FBS, 0.1 mM nonessential amino acids, and 2 mM Glutamax) for the first 24 hours. […] M9 medium was refreshed every other day. After a 10-day induction, cells were cultured in neural stem cells medium (NSC medium). Afterwards, the cells could be repeatedly propagated in NSC medium.
as §1, with “Antibodies used in this study are listed below in Table 1.” left out

tdMEF [2] = assay: Inhibitor assay: pathway inhibitors added to M9 reprogramming; assay type: cell-based, mouse; conditions: Sox2+/Nestin+ cells at day 10
Experimental: When performing the reprogramming, small molecule inhibitors, including 0.5 μM PD0325901, 10 μM SP 600125, 5 μM SB203580, 5 μM LY294002, or 2 μM LDE 225, was added in the freshly made M9 culture medium. DMSO was used in basal medium as control. The medium was changed every 2 days, and the Sox2+/Nestin+ cells were analyzed by immunostaining by day 10 after treatment.

[3] = target: Smoothened (Smo) receptor (Homo sapiens, UniProt Q99835); conditions: cited from earlier work
Sequence of Smoothened (Smo) receptor (Q99835 28-787): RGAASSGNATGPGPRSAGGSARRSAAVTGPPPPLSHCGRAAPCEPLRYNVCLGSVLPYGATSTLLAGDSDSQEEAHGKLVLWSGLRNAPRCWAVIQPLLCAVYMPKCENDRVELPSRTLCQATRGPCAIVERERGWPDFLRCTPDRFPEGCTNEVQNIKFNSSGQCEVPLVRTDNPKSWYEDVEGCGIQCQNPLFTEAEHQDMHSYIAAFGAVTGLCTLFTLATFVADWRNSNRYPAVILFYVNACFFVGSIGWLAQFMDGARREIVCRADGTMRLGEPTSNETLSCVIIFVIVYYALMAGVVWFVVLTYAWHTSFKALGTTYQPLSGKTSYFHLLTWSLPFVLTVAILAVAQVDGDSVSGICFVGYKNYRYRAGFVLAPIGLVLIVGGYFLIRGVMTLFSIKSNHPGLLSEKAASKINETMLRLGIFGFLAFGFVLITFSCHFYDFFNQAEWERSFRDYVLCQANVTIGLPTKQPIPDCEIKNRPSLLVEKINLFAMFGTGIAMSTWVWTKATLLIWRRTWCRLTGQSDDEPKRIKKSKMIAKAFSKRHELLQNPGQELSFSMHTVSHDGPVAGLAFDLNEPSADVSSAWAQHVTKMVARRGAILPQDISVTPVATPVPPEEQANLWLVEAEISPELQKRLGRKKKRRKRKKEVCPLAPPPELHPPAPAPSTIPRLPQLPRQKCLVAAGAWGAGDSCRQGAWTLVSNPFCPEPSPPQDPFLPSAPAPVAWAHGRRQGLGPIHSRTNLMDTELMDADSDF

[4] = tested on: Hedgehog signaling pathway in Shh-light 2 cells; conditions: read-out: EC50 activation of Hedgehog signaling pathway; cited from earlier work
[5] = tested on: A53T alpha-synuclein clearance in PC-12 cells; conditions: independent of rapamycin treatment; cited from earlier work
ciNSLC-derived neurons = assay type: cell-based, mouse

Q: Which “generation of Sox2/Nestin double-positive cells” value (tdMEFs) does the source give for `N[C@@H]1C[C@H]1c1ccccc1` (racemic) [Parnate, tranylcypromine sulfate] here?
A: Its value is “further enhanced”.

Q: For `O=C(O)[C@@H](Cc1c[nH]c2ccccc12)N1C(=O)c2ccccc2C1=O` (stereo in doubt) [RG108, N-Phthalyl-L-tryptophan], which “generation of Sox2/Nestin double-positive cells” value (tdMEFs) is on record?
A: Its value is “further enhanced”.

Q: With `CC(C)CCC[C@](C)(O)[C@H]1CC[C@H]2[C@@H]3CC=C4C[C@@H](O)CC[C@]4(C)[C@H]3CC[C@@]21C` [(3β)-Cholest-5-ene-3,20-diol] as the compound, how does the EC50 (Hedgehog (Hh) signaling) read?
A: Its EC50 is about 3000 nM.

Q: With `NC(=O)c1ccc(-c2nc(-c3ccc4c(c3)OCCO4)c(-c3ccccn3)[nH]2)cc1` [D 4476, 4-[4-(2,3-Dihydro-1,4-benzodioxin-6-yl)-5-(2-pyridinyl)-1H-imidazol-2-yl]benzamide] as the compound, how does the “selectivity over SAPK2/p38” value (SAPK2/p38) read?
A: The value was “greater than 20 fold”.

Q: With `CNC1CCC(N(Cc2cccc(-c3ccncc3)c2)C(=O)c2sc3c(F)ccc(F)c3c2Cl)CC1` (stereo not shown) [Hh-Ag 1.5, 3-chloro-4,7-difluoro-N-(4-(methylamino)cyclohexyl)-N-(3-(pyridin-4-yl)benzyl)benzo[b]thiophene-2-carboxamide] as the compound, how does the Sox2/Nestin double-positive cells (tdMEFs) read?
A: The Sox2/Nestin double-positive cells was 3.68%.

Q: What about the “reprogramming efficiency when the component is removed from the M9 cocktail” value (tdMEF [1]) of the same compound?
A: The value was “affected the ciNSLC induction most”.

Q: For `Cc1c(C(=O)Nc2ccc(N3C[C@@H](C)O[C@@H](C)C3)nc2)cccc1-c1ccc(OC(F)(F)F)cc1` [LDE-225], which “reduction of reprogramming efficiency” value (tdMEF [2]; 2 μM added to M9 medium) is on record?
A: Its value is “about 6 fold”.

Q: Which “reduction of reprogramming efficiency” value (tdMEF [2]; 5 μM LY294002 added to M9 medium) does the source give for `O=c1cc(N2CCOCC2)oc2c(-c3ccccc3)cccc12` [LY294002] here?
A: The value was about 4 fold.

Q: For `O=C(NOC[C@H](O)CO)c1ccc(F)c(F)c1Nc1ccc(I)cc1F` [PD0325901], which “reduction of reprogramming efficiency” value (tdMEF [2]; 0.5 μM added to M9 medium) is on record?
A: The value was “about 9 fold”.

Q: Which results are given for `CN[C@H]1CC[C@H](N(Cc2cccc(-c3ccncc3)c2)C(=O)c2sc3ccccc3c2Cl)CC1` [SAG, 3-Chloro-N-[trans-4-(methylamino)cyclohexyl]-N-[[3-(4-pyridinyl)phenyl]methyl]benzo[b]thiophene-2-carboxamide]?
A: Kd [3]: 59 nM; EC50 [4]: ~3 nM

Q: For `C[S+]([O-])c1ccc(-c2nc(-c3ccc(F)cc3)c(-c3ccncc3)[nH]2)cc1` (stereo not shown) [SB203580], which “reduction of reprogramming efficiency” value (tdMEF [2]; 5 μM SB203580 added to M9 medium) is on record?
A: Its value is about 5 fold.

Q: What does the source list for `C=CCNc1ncnc2ccc(Br)cc12` [SMER28, 6-bromo-N-2-propenyl-4-quinazolinamine]?
A: generation of Sox2/Nestin double-positive cells (tdMEFs): further enhanced; A53T alpha-synuclein clearance [5]: enhances

Q: With `Oc1c2ccccc2c2c3c(cccc13)N=N2` [SP600125] as the compound, how does the “reduction of reprogramming efficiency” value (tdMEF [2]; 10 μM added to M9 medium) read?
A: Its value is about 6 fold.

Q: With `CC1=C(/C=C/C(C)=C/C=C/C(C)=C/C(=O)O)C(C)(C)CCC1` [retinoic acid] as the compound, how does the Sox2/Nestin double-positive cells (tdMEFs) read?
A: Its Sox2/Nestin double-positive cells is 1.26%.

Q: With `CC[N+](CC)(CC)CC` [tetraethylammonium] as the compound, how does the persistent outward current (ciNSLC-derived neurons) read?
A: The persistent outward current was “blocked”.

Q: For `NC1=N[C@H](O)[C@H]2[C@H]3O[C@]4(O)O[C@@H]([C@@H](O)[C@@]2(N1)[C@@H]4O)[C@]3(O)CO` [tetrodotoxin], which inactivating inward current (ciNSLC-derived neurons) is on record?
A: The inactivating inward current was “blocked”.

Q: Which “reprogramming efficiency when the component is removed from the M9 cocktail” value (tdMEF [1]) does the source give for “bFGF: basic fibroblast growth factor (bFGF; also known as FGF2)” here?
A: Its value is “affected the ciNSLC induction most”.
